In article PMC8231556, “Inhibiting Endothelial Cell Function in Normal and Tumor Angiogenesis Using BMP Type I Receptor Macrocyclic Kinase Inhibitors” (Cancers, 2021):

Assays:
Experiment in all cases: radiometric kinase profiling (33 PanQinase)
Assay type in all cases: biochemical
LCK = molecular target: T1, LCK (Homo sapiens, UniProt P06239); conditions: read-out: Inhibitory effect (%) LCK
T1 construct: purchased ProQinase (33PanQinase Activity Assay)
How it was run: (§1)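 Enzyme/substrate mixes were incubated with [γ-33P]-ATP and compound (added as a 0.1 μM solution in 10% DMSO) at 30 °C for 60 min, then stopped with H3PO4 and washed with NaCl. 33P incorporation was scintillation-counted, and residual activity (%) was normalized to untreated control and background.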

CDK1_cyclinA2 = molecular target: T2, CDK1_cyclinA2 (Homo sapiens, UniProt P06493); conditions: read-out: Inhibitory effect (%) CDK1_cyclinA2
T2 construct: purchased Proqinase, Germany
How it was run: as §1

ACVR1 = molecular target: T3, ACVR1 (Homo sapiens, UniProt Q04771); conditions: read-out: Inhibitory effect (%) ACVR1
T3 construct: purchased Proqinase, Germany
T3 sequence (Q04771 21-509): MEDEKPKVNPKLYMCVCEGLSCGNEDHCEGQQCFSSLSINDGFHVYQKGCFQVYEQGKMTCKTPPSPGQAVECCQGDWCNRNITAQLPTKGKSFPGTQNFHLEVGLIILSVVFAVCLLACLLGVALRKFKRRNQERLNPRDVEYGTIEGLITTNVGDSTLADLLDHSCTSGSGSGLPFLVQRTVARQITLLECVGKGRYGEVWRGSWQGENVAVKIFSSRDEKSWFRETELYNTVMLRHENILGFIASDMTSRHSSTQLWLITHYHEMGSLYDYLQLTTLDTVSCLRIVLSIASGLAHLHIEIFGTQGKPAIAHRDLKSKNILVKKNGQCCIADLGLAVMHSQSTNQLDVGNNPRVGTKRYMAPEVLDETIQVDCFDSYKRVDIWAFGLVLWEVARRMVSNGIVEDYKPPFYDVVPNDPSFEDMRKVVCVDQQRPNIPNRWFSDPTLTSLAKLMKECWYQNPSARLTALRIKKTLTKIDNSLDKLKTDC
How it was run: as §1

CSNK1A1 = molecular target: T4, CSNK1A1 (Homo sapiens, UniProt P48729); conditions: read-out: Inhibitory effect (%) CSNK1A1
T4 construct: purchased Proqinase, Germany
How it was run: as §1

NUAK1 = molecular target: T5, NUAK1 (Homo sapiens, UniProt O60285); conditions: read-out: Inhibitory effect (%) NUAK1
T5 construct: purchased ProQinase (33PanQinase Activity Assay)
T5 sequence (O60285 1-661): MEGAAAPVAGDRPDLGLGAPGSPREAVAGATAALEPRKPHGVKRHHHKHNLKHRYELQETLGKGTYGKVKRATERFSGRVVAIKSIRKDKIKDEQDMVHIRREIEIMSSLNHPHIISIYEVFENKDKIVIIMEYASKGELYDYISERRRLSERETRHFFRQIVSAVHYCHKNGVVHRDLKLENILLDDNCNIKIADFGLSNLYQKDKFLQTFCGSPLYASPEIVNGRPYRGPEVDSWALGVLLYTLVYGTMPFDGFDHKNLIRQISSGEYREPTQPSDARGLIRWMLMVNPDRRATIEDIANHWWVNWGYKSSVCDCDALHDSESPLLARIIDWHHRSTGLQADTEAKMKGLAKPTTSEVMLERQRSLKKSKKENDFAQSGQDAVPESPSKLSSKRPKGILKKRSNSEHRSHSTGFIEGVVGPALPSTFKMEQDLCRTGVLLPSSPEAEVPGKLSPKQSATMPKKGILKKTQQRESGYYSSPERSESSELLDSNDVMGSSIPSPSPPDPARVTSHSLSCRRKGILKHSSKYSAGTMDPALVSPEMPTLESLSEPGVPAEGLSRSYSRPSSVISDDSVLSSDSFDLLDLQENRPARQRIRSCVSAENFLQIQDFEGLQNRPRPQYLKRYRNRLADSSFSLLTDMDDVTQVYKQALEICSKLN
How it was run: as §1

IGF1R = molecular target: T6, IGF1R (Homo sapiens, UniProt P08069); conditions: read-out: Inhibitory effect (%) IGF1R
T6 construct: purchased ProQinase (33PanQinase Activity Assay)
How it was run: as §1

PDGFRA = molecular target: T7, PDGFRA (Homo sapiens, UniProt P16234); conditions: read-out: Inhibitory effect (%) PDGFRA
T7 construct: purchased ProQinase (33PanQinase Activity Assay)
How it was run: as §1

GSG2 = molecular target: T8, GSG2 (Homo sapiens, UniProt Q8TF76); conditions: read-out: Inhibitory effect (%) GSG2
T8 construct: purchased ProQinase (33PanQinase Activity Assay)
T8 sequence (Q8TF76 1-798): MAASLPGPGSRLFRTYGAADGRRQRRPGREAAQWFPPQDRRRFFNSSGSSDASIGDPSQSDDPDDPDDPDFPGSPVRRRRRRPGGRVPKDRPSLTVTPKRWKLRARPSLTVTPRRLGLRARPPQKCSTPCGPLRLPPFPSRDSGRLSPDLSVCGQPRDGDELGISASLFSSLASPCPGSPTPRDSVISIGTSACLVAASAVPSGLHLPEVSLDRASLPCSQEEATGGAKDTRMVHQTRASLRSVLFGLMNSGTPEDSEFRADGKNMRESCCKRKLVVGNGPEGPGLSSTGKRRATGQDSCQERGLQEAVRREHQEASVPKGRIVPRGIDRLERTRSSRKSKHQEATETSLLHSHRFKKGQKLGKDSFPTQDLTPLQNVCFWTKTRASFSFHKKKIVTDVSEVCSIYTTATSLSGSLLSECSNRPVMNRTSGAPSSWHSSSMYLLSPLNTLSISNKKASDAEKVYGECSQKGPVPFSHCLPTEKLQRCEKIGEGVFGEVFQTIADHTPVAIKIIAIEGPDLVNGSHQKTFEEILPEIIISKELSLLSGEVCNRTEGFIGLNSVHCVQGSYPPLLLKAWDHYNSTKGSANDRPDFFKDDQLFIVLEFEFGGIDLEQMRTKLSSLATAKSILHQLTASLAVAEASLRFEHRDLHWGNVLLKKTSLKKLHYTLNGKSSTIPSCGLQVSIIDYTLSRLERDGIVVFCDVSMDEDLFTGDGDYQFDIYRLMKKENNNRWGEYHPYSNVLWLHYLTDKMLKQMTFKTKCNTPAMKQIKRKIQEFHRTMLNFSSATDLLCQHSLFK
How it was run: as §1

EPHA5 = molecular target: T9, EPHA5 (Homo sapiens, UniProt P54756); conditions: read-out: Inhibitory effect (%) EPHA5
T9 construct: purchased ProQinase (33PanQinase Activity Assay)
How it was run: as §1

T6 sequence (P08069 31-1367): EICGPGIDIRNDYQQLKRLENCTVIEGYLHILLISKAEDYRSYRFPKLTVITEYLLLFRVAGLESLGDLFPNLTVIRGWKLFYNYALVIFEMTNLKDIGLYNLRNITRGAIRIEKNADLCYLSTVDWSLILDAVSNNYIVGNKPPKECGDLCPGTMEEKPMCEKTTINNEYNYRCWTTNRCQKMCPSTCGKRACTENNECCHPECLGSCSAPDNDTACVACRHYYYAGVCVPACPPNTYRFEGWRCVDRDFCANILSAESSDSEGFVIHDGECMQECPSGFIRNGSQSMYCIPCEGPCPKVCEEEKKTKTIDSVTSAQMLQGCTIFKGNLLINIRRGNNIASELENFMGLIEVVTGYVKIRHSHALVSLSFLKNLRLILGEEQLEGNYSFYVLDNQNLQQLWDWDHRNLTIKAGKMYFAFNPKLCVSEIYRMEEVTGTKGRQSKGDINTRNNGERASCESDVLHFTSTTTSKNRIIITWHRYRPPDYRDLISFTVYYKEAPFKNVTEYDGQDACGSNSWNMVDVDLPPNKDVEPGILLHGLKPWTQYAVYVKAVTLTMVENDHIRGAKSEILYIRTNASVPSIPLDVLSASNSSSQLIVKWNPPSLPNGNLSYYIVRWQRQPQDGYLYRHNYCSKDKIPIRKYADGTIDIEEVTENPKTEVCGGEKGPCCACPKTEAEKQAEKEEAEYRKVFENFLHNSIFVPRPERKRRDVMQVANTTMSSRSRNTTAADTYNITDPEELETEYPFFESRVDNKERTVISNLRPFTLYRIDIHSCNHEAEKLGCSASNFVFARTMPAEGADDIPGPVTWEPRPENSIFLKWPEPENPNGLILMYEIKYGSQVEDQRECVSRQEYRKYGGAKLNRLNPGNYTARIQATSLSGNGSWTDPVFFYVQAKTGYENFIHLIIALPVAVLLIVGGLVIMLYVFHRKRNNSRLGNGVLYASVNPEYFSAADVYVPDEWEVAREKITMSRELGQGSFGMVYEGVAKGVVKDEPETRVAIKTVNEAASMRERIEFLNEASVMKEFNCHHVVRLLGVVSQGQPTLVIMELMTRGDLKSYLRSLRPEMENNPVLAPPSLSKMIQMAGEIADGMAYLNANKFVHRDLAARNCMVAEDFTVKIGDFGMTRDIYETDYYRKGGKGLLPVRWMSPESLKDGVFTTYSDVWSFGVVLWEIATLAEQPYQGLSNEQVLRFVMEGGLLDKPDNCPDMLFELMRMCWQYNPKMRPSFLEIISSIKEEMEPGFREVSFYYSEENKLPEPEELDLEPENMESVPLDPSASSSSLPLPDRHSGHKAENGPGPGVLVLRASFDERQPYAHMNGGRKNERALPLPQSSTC
T9 sequence (P54756 25-1037): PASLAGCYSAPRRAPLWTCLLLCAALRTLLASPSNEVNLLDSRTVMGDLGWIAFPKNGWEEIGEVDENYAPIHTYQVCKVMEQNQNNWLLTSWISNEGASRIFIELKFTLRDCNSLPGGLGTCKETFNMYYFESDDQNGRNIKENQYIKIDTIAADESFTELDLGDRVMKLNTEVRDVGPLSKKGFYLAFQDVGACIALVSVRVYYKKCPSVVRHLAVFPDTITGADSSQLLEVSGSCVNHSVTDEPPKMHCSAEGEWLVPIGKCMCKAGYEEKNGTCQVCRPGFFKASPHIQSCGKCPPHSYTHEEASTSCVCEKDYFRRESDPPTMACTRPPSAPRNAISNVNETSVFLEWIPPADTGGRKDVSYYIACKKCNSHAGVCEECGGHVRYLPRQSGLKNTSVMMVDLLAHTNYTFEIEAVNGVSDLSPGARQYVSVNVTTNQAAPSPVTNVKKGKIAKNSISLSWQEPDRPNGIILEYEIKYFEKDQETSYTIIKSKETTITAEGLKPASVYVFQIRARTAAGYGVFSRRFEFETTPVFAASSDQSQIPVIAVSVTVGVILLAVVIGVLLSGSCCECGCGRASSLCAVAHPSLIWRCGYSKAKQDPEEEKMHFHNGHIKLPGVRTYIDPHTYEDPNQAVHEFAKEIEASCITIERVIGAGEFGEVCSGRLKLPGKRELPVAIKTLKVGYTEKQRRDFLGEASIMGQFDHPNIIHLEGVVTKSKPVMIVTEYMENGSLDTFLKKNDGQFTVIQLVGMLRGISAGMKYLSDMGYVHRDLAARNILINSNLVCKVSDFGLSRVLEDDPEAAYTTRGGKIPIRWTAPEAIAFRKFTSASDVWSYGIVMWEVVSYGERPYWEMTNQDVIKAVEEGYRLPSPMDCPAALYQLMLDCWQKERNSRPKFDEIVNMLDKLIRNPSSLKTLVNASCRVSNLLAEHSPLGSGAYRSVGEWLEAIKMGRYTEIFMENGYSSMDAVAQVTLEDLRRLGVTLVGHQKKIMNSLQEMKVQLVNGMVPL
T4 sequence (P48729 whole entry): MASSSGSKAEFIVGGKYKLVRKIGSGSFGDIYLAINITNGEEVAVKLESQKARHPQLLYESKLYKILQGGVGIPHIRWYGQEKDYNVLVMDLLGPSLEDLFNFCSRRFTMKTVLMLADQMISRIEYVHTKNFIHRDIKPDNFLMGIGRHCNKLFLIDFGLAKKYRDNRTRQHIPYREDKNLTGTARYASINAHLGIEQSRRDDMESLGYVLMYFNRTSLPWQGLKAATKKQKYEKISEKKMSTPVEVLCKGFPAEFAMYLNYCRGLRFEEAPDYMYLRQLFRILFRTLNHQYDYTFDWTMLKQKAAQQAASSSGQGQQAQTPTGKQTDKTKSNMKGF
T1 sequence (P06239 whole entry): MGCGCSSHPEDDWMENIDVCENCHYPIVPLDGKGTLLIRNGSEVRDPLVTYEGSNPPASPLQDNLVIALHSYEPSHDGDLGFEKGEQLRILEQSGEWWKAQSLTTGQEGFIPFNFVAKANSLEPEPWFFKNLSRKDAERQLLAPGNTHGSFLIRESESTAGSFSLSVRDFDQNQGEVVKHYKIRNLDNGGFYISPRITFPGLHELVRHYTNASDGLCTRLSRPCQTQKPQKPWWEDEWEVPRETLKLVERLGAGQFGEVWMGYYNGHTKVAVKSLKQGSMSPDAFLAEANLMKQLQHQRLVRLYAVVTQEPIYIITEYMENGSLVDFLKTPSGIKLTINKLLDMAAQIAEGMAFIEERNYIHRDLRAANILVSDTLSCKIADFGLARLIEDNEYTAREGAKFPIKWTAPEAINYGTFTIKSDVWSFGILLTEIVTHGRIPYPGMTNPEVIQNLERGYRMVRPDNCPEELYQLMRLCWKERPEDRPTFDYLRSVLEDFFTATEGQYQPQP
T2 sequence (P06493 whole entry): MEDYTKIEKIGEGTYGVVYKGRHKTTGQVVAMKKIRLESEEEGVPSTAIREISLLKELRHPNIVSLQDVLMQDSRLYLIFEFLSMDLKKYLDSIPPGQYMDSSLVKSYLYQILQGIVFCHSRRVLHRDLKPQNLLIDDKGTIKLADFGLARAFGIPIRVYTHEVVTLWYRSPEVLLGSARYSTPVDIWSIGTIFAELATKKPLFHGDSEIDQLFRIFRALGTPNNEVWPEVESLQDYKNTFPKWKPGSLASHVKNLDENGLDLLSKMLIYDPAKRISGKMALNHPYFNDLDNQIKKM
T2 sequence (P20248 whole entry partner): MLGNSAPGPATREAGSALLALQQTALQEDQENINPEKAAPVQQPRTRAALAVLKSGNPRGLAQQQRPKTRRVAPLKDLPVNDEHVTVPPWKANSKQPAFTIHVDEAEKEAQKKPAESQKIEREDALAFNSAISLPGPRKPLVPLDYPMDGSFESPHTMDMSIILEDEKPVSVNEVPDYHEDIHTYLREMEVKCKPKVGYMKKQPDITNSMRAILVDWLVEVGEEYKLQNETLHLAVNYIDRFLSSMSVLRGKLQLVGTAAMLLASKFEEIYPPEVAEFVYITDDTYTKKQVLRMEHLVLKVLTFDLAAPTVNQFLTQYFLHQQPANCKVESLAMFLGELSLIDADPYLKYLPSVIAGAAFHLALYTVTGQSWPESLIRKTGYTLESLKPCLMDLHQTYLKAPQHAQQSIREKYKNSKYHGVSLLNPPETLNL
T7 sequence (P16234 24-1089): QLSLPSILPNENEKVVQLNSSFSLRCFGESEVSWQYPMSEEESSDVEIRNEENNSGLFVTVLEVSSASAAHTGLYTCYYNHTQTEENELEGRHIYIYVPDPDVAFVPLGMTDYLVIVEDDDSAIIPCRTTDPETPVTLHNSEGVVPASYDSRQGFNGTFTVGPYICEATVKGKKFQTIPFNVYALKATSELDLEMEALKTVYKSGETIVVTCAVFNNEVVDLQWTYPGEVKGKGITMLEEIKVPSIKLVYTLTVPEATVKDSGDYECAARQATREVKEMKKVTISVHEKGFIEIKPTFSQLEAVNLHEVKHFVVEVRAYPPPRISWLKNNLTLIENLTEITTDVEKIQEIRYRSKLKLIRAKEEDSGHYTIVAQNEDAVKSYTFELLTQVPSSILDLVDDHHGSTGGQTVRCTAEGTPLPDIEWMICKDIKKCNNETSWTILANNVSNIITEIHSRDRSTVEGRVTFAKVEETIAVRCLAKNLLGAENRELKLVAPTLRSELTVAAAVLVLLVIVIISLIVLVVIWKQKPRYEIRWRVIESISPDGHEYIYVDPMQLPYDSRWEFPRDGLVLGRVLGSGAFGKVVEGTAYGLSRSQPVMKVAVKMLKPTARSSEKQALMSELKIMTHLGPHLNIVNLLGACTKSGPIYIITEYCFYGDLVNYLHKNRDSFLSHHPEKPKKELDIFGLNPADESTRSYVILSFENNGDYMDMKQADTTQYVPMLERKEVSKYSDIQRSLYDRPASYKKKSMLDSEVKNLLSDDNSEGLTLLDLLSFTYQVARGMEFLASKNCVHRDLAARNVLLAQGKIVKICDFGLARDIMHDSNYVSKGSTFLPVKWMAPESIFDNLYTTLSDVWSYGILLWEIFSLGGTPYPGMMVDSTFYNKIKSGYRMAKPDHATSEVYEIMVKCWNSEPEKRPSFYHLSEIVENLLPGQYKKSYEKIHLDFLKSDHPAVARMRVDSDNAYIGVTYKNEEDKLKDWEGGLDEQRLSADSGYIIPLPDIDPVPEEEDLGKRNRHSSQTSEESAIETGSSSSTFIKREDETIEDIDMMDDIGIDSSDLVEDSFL

`c1ccc2c(-c3cnn4cc(-c5ccc(N6CCNCC6)cc5)cnc34)ccnc2c1` [LDN-193189, reference compound] showed an inhibition at 0.1 µM (LCK) of 25.4%, an inhibition at 0.1 µM (CDK1_cyclinA2) of -2.18% and an inhibition at 0.1 µM (ACVR1) of 67.7%. For the same compound, the inhibition at 0.1 µM (CSNK1A1) was -3.63%, the inhibition at 0.1 µM (NUAK1) was -20.2% and the inhibition at 0.1 µM (IGF1R) was 8.78%. The inhibition at 0.1 µM (PDGFRA) was 3.63%, the inhibition at 0.1 µM (GSG2) was -5.75% and the inhibition at 0.1 µM (EPHA5) was -0.32%.
`CN1CCc2cccc(c2)Nc2nccc(n2)N2CCCc3cc(ccc32)C1` [OD16] showed an inhibition at 0.1 µM (LCK) of 6.7%, an inhibition at 0.1 µM (CDK1_cyclinA2) of -8.88% and an inhibition at 0.1 µM (ACVR1) of 90.2%. For the same compound, the inhibition at 0.1 µM (CSNK1A1) was 0.99%, the inhibition at 0.1 µM (NUAK1) was 74.3% and the inhibition at 0.1 µM (IGF1R) was -39.5%. The inhibition at 0.1 µM (PDGFRA) was -16%, the inhibition at 0.1 µM (GSG2) was 6.26% and the inhibition at 0.1 µM (EPHA5) was -65.7%.
Work on `CN1CCC(=O)NCCNc2ccn3ncc(c3n2)-c2cccc(c2)C1` [OD29] yielded an inhibition at 0.1 µM (LCK) of 35.6%, an inhibition at 0.1 µM (CDK1_cyclinA2) of 23.7% and an inhibition at 0.1 µM (ACVR1) of 92.5%. The inhibition at 0.1 µM (CSNK1A1) was -2.21%, the inhibition at 0.1 µM (NUAK1) was 5.32% and the inhibition at 0.1 µM (IGF1R) was 13.9%. It also gave an inhibition at 0.1 µM (PDGFRA) of -9.93%, an inhibition at 0.1 µM (GSG2) of 34.6% and an inhibition at 0.1 µM (EPHA5) of 14.8%.
